Data as given in US10221147B2, “Heterocyclic compounds with working memory enhancing activity” (Red Bull GmbH, priority 2014, dated 2019).

Tests used:
Male Sprague Dawley rats = experiment: 12 arm radial arm maze (RAM), working memory errors; assay type: in vivo, rat; details: versus DMSO-injected counterparts
Excerpt: One such animal model is the radial arm maze using rats and is given in detail in Timofeva O. et al., Brain Res. 1308 (2010) 147-152: Wenk G. et al.; The Journal of Neuroscience (2004) 8.5A.1-8.5A.12; Akoto M. et al.; The Journal of Neuroscience (2000)20 (189: 7116-7121: Levin E D et al.; Behavioral Brain Res. 208 (2010) 319-327. Li-Bo Z. et al.; Neuropharmacology 37, 1998) 323-330. Roegge, C S. et al.; Toxicological Sciences 57, 121-30 (2000).
Male Sprague Dawley rats were used for the studies aged between 12-14 weeks. Twelve rats per group were used for this study. All rats were obtained from Core Unit of Biomedical Research, Division of Laboratory Animal Science and Genetics, Medical University of Vienna and maintained in cages made of makrolon and filled with autoclaved woodchips and water in bottles was available ad libitum. The room was illuminated with artificial light at an intensity of about 200 lx in 2 m from 5 am to 7 pm. Radial arm maze (RAM) training was performed between 8:00 h and 13:00 h. […]
Before starting the training, rats were given two habituation sessions in which food was placed all over the maze and rats were allowed to explore the maze and consume the food for 5 minutes. […] An arm was baited only once and a repeated entry into a baited arm was counted as a working memory error, whereas any entry into an un-baited arm was recorded as a reference memory error. […]

[1] = biological target: T1, norepinephrine transporter (NET) (Homo sapiens, UniProt P23975); experiment: Substrate uptake inhibition in HEK-NET cells; assay type: cell-based; details: human NET expressed in HEK293, substrate uptake
T1 construct: expressed in transfected cells; host or cells: HEK293 (HEK-NET)
Protocol: (§1) The human isoforms of DAT, SERT and NET were expressed in HEK293 (HEK-DAT, HEK-SERT and HEK-NET) cells. DAT inhibitors-mediated monoamine transporter effects on substrate uptake were analyzed according to procedure described by Sitte et al. In brief, cells were grown in poly-d-lysine coated 96-well plates, incubated with compounds diluted in Krebs-Ringer-HEPES buffer, substrates were subsequently added, cells were lysed with 1% SDS (sodium dodecyl sulphate) and released radioactivity was measure by a liquid scintillation counter (23).
(§2) EC50-values for the dopamine transporter (DAT), the norepinephrine transporter (NET) and the serotonin transporter (SERT) were obtained: […]

[2] = biological target: T2, dopamine transporter (DAT) (Homo sapiens, UniProt Q01959); experiment: Substrate uptake inhibition in HEK-DAT cells; assay type: cell-based; details: for inhibition of DAT and selectivity against SERT and NET: verbal summary of EC50 values
T2 construct: expressed in transfected cells; host or cells: HEK293 (HEK-DAT)
Protocol: as §1, §2

[3] = biological target: T3, serotonin transporter (SERT) (Homo sapiens, UniProt P31645); experiment: Substrate uptake inhibition in HEK-SERT cells; assay type: cell-based; details: human SERT expressed in HEK293, substrate uptake
T3 construct: expressed in transfected cells; host or cells: HEK293 (HEK-SERT)
Protocol: as §1, §2

T2 sequence (Q01959 whole entry): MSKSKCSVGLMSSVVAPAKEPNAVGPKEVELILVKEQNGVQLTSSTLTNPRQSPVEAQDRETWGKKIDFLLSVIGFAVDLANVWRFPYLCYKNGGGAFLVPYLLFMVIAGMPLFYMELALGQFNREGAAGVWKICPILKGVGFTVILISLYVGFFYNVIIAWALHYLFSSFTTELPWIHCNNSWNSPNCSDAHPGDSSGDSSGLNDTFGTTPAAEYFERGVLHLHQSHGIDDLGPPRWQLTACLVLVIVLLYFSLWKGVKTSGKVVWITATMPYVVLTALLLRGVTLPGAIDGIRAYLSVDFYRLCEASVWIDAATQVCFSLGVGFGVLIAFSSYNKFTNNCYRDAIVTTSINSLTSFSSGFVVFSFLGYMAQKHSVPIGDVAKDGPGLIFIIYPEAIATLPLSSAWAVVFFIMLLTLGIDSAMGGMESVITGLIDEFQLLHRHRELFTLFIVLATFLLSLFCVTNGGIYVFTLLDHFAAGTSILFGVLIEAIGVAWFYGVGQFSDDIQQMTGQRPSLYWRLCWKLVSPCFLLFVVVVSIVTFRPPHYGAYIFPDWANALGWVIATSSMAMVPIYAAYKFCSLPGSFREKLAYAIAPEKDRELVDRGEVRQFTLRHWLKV
T1 sequence (P23975 whole entry): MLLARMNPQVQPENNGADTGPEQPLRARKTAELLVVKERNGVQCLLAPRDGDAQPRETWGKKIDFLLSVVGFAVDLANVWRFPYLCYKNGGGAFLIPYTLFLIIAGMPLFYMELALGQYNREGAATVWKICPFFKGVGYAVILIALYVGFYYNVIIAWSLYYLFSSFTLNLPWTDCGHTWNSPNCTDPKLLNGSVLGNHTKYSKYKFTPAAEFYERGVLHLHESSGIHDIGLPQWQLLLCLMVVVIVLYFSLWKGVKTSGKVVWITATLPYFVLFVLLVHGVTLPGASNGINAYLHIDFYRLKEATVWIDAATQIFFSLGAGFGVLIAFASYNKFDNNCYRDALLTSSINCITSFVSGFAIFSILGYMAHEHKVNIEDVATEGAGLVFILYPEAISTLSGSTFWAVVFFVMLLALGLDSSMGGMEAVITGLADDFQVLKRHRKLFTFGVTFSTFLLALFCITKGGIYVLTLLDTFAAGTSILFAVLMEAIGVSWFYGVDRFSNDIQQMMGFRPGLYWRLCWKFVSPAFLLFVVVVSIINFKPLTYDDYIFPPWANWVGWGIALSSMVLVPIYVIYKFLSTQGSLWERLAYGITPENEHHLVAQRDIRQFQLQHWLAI
T3 sequence (P31645 whole entry): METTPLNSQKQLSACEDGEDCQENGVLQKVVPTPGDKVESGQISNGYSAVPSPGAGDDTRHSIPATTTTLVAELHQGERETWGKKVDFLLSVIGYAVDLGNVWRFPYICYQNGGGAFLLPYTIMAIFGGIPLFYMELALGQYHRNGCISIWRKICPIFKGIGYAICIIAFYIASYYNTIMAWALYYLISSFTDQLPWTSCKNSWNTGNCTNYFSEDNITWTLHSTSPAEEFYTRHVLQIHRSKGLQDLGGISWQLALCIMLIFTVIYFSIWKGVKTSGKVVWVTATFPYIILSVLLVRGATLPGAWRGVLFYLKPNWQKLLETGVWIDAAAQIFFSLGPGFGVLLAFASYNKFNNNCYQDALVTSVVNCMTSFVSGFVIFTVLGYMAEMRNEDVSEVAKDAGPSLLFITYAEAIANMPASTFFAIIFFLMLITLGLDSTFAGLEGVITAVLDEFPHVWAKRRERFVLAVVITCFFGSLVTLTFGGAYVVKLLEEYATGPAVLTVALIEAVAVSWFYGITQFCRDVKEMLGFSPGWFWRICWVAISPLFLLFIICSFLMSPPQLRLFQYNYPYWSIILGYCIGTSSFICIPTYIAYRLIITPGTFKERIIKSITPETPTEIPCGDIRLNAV

Row | Structure (SMILES) | performance in RAM training from day eight (working memory errors) (Male Sprague Dawley rats; day eight to ten, p<0.05) | performance in RAM training up to day seven (Male Sprague Dawley rats; up to day seven) | melting point | EC50 [1] | EC50 [2] | inhibition of DAT and selectivity against SERT and NET [2] | EC50 [3]
1 | [O-][S+](Cc1nccs1)C(c1ccccc1)c1ccccc1 (stereo not drawn) [C1, 2-(diphenylmethanesulfinylmethyl}-1,3-thiazole] | performed better | comparable level | 119 to 122 °C | – | – | – | –
2 | Cc1csc(C[S+]([O-])C(c2ccccc2)c2ccccc2)n1 (stereo not drawn) | – | – | 104 to 107 °C | – | – | – | –
3 | [O-][S+](Cc1csc(C2CC2)n1)C(c1ccccc1)c1ccccc1 (stereo not drawn) [4-(diphenylmethanesulfinylmethyl)-2-cyclopropyl-1,3-thiazole] | – | – | – | 774 µM | 4.1 µM | excellent inhibition and selectivity against SERT and NET | 436 µM
4 | [O-][S+](Cc1cscn1)C(c1ccccc1)c1ccccc1 (stereo not drawn) [4-(diphenylmethanesulfinylmethyl)-1,3-thiazole] | – | – | – | 547 µM | 7.3 µM | excellent inhibition and selectivity against SERT and NET | 456 µM
